This is an account of results in US8334291B2, “Aliphatically substituted pyrazolopyridines, and the use thereof” (Bayer Intellectual Property GmbH, priority 2008, dated 2012).

SMILES strings stand for the structures.

The assay has as its system rabbit aorta rings contracted with phenylephrine. The assay can be described thus: Vasorelaxant effect in vitro. Details: species or system Rabbits. As to conditions: Oryctolagus cuniculus; concentration reducing height of phenylephrine-induced contraction of rabbit aorta rings by 50%; 0.1% DMSO. On the procedure: Rabbits are stunned by a blow to the neck and exsanguinated. The aorta is removed, freed from adhering tissue and divided into rings of a width of 1.5 mm. The rings are placed individually under an initial tension in 5 ml organ baths with Krebs-Henseleit solution which is at 37° C., is gassed with carbogen and has the following composition (in each case mM): NaCl: 119; KCl: 4.8; CaCl2×2H2O: 1; MgSO4×7H2O: 1.4; KH2PO4: 1.2; NaHCO3: 25; glucose: 10. The force of contraction is detected with Statham UC2 cells, amplified and digitized via A/D converters (DAS-1802 HC, Keithley Instruments, Munich) and recorded in parallel on chart recorders. Contractions are induced by cumulatively adding increasing concentrations of phenylephrine to the bath. After several control cycles, the substance to be investigated is added in each further run in increasing dosage in each case, and the height of the contraction achieved is compared with the height of the contraction reached in the last preceding one. The concentration necessary to reduce the height of the control value by 50% is calculated from this (IC50 value). The standard application volume is 5 μl, the proportion of DMSO in the bath solution corresponds to 0.1%.

For the compound `COC(=O)Nc1c(N)nc(-c2nn(CC3CCCCC3)c3ncccc23)nc1N` [Example 1, Methyl[4,6-diamino-2-(1-cyclohexylmethyl-1H-pyrazolo[3,4-b]pyridin-3-yl)pyrimidin-5-yl]carbamate], the IC50 (in general, the concentration needed to halve the response being measured) was 870 nM.

As to `Nc1nc(-c2nn(CC3CCCCCC3)c3ncccc23)ncc1-c1ccncc1` [Example 5, 2-[1-(Cycloheptylmethyl)-1H-pyrazolo[3,4-b]pyridin-3-yl]-5-(pyridin-4-yl)pyrimidine-4-amine], half-maximal inhibition (IC50) was put at 1000 nM.
